Measurements taken from patent US20050282743A1, “Molecular interactions in cells” (Arbor Vita Corporation, priority 2001, published 2005).
Values joined by “and” are separate entries in the source; they are usually repeats but may differ in a detail not shown here. Equal entries are not always repeated. Where two headings read alike, the source gives them in different places. Ends that are not written are not given here. Peptide text beside a SMILES is read from it. * marks the point of attachment. Biotin = O=C1N[C@H]2[C@H](CS[C@H]2CCCCC(=O)*)N1

What was measured:
Type in all cases: binding
DLG1(1-2) = target: T1, DLG1(1-2) (Homo sapiens, UniProt Q12959); experiment: G assay peptide titration, dissociation constants (Example 3, TABLE 4); settings: biotinylated C-terminal 20-mer, 450 nm, 30 min
T1 construct: made in house; host or cells: E. coli (DH5alpha, BL21 or JM109)
T1 sequence (Q12959 213-413 limits assumed): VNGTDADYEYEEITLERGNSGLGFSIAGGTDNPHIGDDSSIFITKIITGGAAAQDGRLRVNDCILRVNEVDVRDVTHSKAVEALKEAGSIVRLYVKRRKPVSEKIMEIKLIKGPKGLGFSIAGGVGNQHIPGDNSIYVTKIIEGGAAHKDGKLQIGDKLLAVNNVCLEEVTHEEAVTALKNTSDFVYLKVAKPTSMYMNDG
Procedure: (§1) Binding between these molecules was assessed using a modified ELISA. Briefly, a GST-TIP-1 fusion was produced that contained the entire PDZ domain of human TIP-1 (Insert as in EXAMPLE 2). In addition, biotinylated peptides corresponding to the C-terminal 20 amino acids of Tax and CD95 were synthesized and purified by HPLC. Binding between these entities was detected through a colorimetric assay using avidin-HRP to bind the biotin and a peroxidase substrate (G-assay, as described supra). By titrating the amount of peptide and protein added to these reactions, dissociation constants (Kd) were determined as an indication of relative affinity of the peptide and fusion protein association.
(§2) (at last wash leave PBS in wells until immediately adding next step) • 6) Add proteins at 50 ul per well on ice (1 to 2 hrs at 4° C.) • 7) Prepare Peptides in 2% BSA (2 ml/row or /columns) • 8) 3× wash with cold PBS • 9) Add peptides at 50 ul per well on ice (time on/time off)
(§3) Using the protocol for the ‘G’ assay described above, dissociation constants were determined by titrating the amount of peptide against a set concentration of PDZ-containing protein. Kd values were determined by identifying the peptide concentration that gave half-maximal binding to the PDZ protein. Different concentrations of PDZ-containing protein were plated in order to achieve maximal peptide binding values that were less than the absorbance maximum of the ELISA plate reader.
(§4) Proteins on the left are GST fusions to the PDZ domain(s) of protein indicated. Numbers in parenthesis indicate the number of PDZ domains present in the fusion construct, from the amino-terminus of the first number listed to the carboxyl terminus of the second. PDZ Ligands are listed across the top of the table, representing biotinylated peptides corresponding to the carboxy-terminal 20 amino acids of each protein. The first three columns following the PDZ indicate the concentration of fusion protein plated for the G assay, followed by the wavelength and time of reading from addition of TMB substrate. 450 nm indicates a reaction halted by addition of sulfuric acid and absorbance read at 450 nm. Values beneath each ligand indicate first the maximum absorbance followed by the observed Kd in uM. Numbers in the squares are the average of duplicate or quadruplicate reactions. Blank squares indicate that the Kd for the interaction was not tested under those conditions on the same sample plate. No binding to GST alone is observed.

TIP-1 (GST-TIP-1 fusion) = target: T2, TIP-1 (GST-TIP-1 fusion) (Homo sapiens, UniProt O14907, I73S); experiment: as above; settings: for OD (maximum absorbance) / Kd: biotinylated C-terminal 20-mer, 450 nm, 30 min
T2 construct: made in house; host or cells: E. coli DH5alpha
T2 sequence (O14907 3-123 I73S): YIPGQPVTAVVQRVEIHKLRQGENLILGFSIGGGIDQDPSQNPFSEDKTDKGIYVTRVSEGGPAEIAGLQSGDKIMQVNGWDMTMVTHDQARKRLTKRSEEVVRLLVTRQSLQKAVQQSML
Procedure: as §1, §2, §3, §4

DLG1 (PDZ Domain 1, 2) = target: T3, DLG1 (PDZ Domain 1, 2) (Homo sapiens, UniProt Q12959); experiment: G' assay, TABLE 12; settings: A450 nm class of biotinylated PL peptide bound; 0 in conc columns = peptide 10 uM, protein 5 ug/ml
T3 construct: made in house; host or cells: E. coli (DH5alpha, BL21 or JM109)
T3 sequence (Q12959 213-413 limits assumed): as the sequence (Q12959 213-413 limits assumed) above
Outline: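 PL peptide binding to PDZ domain protein, peptide at 10 uM; protein at 5 ug/ml unless another concentration is listed for Kd determination. Bound peptide read at A450 nm and binned into classes 0–5.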

[1] = target: T4, PDZ protein (GST-PDZ fusion) (Homo sapiens, UniProt O15021); experiment: G' assay (10 uM PL peptide), results of TABLE 7 and TABLE 12; settings: PDZ KIAA0303, PDZ Domain 1
T4 construct: made in house; host or cells: E. coli (DH5alpha, BL21 or JM109)
T4 sequence (O15021 whole entry, the tested form may be a part): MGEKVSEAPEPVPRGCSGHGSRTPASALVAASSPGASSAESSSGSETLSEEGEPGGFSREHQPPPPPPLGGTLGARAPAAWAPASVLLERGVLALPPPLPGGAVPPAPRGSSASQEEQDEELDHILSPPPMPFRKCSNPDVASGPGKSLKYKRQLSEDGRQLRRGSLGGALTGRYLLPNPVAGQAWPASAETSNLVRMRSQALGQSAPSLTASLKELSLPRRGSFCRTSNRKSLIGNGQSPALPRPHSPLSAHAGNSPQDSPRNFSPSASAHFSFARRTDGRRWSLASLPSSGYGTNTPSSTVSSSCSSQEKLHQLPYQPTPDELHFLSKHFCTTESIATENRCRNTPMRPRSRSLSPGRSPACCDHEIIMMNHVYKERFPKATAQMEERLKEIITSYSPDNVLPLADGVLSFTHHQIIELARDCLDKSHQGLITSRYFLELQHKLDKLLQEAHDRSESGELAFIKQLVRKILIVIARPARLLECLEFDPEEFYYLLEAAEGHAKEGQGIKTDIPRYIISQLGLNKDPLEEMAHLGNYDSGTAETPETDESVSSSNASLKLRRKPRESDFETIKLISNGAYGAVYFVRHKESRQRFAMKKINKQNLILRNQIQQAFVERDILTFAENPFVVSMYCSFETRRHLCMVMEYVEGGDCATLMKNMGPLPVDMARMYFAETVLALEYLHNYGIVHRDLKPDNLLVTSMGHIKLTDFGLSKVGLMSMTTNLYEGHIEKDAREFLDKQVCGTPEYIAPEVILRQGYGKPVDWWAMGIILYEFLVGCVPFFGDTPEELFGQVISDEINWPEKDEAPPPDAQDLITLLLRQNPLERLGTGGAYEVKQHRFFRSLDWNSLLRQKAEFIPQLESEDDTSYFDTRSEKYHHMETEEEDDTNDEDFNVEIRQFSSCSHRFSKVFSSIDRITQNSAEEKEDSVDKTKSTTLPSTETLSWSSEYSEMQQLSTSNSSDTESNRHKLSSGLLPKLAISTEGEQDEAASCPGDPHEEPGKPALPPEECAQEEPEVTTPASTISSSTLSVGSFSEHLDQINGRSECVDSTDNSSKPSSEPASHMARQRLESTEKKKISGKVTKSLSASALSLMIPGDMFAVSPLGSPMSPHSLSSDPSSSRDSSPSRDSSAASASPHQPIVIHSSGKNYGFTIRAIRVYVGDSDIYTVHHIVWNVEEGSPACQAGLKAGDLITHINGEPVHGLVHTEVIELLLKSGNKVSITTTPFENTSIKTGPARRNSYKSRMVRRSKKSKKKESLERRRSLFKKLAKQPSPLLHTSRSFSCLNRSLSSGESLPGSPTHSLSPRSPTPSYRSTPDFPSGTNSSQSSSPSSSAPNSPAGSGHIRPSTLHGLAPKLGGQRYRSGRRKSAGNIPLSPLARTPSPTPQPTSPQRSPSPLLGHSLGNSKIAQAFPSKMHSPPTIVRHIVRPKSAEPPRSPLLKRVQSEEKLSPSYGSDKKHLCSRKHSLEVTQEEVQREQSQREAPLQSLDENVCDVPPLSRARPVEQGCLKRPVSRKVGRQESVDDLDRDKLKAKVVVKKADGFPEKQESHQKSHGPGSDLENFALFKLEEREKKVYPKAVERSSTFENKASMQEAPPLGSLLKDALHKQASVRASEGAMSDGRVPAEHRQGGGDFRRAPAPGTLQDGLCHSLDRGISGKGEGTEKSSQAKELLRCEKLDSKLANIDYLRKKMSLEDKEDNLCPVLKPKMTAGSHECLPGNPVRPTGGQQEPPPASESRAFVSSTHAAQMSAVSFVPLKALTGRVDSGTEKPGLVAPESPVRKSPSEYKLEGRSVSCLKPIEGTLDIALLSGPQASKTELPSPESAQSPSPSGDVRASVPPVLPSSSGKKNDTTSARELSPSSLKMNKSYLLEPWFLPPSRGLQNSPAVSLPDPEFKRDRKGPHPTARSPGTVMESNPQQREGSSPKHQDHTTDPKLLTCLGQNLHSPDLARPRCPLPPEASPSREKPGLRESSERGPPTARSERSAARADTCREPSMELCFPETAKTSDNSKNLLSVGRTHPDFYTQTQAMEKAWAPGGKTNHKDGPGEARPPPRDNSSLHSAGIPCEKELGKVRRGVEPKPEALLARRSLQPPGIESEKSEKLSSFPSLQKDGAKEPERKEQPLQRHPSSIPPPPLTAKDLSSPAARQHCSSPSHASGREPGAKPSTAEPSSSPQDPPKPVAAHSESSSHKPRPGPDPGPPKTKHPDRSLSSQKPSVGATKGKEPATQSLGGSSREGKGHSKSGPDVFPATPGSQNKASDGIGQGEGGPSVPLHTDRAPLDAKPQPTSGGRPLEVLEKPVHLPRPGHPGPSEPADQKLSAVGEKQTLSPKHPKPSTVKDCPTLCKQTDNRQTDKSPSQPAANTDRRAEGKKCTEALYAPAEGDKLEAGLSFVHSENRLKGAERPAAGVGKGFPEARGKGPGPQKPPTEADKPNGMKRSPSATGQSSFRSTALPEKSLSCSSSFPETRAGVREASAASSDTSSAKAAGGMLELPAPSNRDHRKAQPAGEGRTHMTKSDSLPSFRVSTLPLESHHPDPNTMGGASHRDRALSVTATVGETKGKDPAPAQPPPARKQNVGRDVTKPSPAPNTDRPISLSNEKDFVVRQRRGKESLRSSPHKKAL
Outline: (§5)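 Same steps as the G-zero format, apart from a peptide concentration of 10 uM in place of 20 uM in step 2. Amino-terminally biotinylated PL peptides bind GST-PDZ fusions, and retained peptide is quantified by 450 nm absorbance.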

[2] = target: T5, PDZ protein (GST-PDZ fusion) (Rattus norvegicus, UniProt Q9JLU4); experiment: as above; settings: PDZ rat SHANK 3, PDZ Domain 1
T5 construct: made in house; host or cells: E. coli (DH5alpha, BL21 or JM109)
T5 sequence (Q9JLU4 whole entry, the tested form may be a part): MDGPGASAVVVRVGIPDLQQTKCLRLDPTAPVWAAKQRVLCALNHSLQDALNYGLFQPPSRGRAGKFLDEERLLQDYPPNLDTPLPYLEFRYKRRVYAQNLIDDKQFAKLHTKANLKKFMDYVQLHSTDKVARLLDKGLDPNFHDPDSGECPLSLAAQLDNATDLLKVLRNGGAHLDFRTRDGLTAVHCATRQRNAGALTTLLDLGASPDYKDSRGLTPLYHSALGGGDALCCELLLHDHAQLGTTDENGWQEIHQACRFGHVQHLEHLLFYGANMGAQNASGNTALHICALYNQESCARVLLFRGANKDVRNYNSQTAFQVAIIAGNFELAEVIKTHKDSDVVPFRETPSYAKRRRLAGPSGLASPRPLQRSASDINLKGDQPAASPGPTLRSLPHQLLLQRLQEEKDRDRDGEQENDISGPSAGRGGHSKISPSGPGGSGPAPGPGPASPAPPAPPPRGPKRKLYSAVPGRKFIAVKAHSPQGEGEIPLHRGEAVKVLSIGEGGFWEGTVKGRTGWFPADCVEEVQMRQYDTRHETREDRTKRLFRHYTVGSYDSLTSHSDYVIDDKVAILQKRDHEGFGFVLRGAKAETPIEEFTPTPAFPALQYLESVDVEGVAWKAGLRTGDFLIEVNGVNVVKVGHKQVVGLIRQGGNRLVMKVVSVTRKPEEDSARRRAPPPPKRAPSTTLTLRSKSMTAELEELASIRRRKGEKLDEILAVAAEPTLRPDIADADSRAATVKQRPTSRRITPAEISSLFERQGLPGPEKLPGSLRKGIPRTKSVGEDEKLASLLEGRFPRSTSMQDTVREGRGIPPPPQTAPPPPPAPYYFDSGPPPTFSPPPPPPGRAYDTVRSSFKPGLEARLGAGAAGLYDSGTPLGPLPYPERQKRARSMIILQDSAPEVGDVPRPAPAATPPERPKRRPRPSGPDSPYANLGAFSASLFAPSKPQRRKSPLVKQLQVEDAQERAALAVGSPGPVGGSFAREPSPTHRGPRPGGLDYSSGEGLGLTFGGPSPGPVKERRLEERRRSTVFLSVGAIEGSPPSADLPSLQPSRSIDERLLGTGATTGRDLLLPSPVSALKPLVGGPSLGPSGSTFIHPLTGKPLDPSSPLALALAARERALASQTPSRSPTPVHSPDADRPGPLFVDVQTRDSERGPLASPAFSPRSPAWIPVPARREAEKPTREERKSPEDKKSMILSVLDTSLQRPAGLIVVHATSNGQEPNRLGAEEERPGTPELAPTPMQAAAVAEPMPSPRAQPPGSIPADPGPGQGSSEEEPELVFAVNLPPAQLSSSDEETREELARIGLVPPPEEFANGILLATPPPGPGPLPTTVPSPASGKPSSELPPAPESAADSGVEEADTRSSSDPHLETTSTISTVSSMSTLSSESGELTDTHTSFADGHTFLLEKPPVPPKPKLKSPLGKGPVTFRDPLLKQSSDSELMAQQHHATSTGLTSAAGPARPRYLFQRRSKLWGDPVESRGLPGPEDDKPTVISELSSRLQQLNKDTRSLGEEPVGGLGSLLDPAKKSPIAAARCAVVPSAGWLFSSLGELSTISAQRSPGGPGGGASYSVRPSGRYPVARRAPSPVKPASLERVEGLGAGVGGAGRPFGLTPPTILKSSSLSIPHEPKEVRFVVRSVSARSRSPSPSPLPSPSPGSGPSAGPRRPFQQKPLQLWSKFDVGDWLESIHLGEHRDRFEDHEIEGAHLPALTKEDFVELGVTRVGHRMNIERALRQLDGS
Outline: as §5

## CC[C@H](C)[C@H](NC(=O)[C@H](CCC(=O)O)NC(=O)[C@H](CC(N)=O)NC(=O)[C@H](CCCNC(=N)N)NC(=O)[C@H](Cc1ccccc1)NC(=O)[C@H](CC(N)=O)NC(=O)[C@H](CO)NC(=O)[C@H](CC(N)=O)NC(=O)[C@H](CCC(=O)O)NC(=O)[C@H](CO)NC(=O)[C@H](CC(=O)O)NC(=O)[C@H](CO)NC(=O)[C@@H](NC(=O)[C@@H](NC(=O)[C@H](CC(=O)O)NC(=O)[C@H](CCCCN)NC(=O)CCCC[C@@H]1SC[C@@H]2NC(=O)N[C@@H]21)[C@@H](C)CC)[C@@H](C)O)C(=O)N[C@@H](CCC(N)=O)C(=O)N[C@@H](CO)C(=O)N[C@@H](CC(C)C)C(=O)N[C@H](C(=O)O)C(C)C [CD95] (Biotin-KDITSDSENSNFRNEIQSLV-OH; C-terminus assumed)
DLG1(1-2); DLG1(1-2) plated at 0.3 ug/ml
  OD (maximum absorbance): 2.6 and 2.1
DLG1(1-2); DLG1(1-2) plated at 0.3 ug/ml, read-out: Kd
  Kd: 15 µM and 20 µM
TIP-1 (GST-TIP-1 fusion); TIP-1 plated at 0.3 ug/ml
  OD (maximum absorbance): 2.6 and 3.5
TIP-1 (GST-TIP-1 fusion); TIP-1 plated at 0.3 ug/ml, read-out: Kd
  Kd: 20 µM and 25 µM
DLG1 (PDZ Domain 1, 2)
  Classification: 2 (A450 nm 1-2)

## CC[C@H](C)[C@H](NC(=O)[C@H](CC(=O)O)NC(=O)[C@H](CCC(=O)O)NC(=O)[C@H](CCCNC(=N)N)NC(=O)[C@@H](NC(=O)CCCC[C@@H]1SC[C@@H]2NC(=O)N[C@@H]21)[C@@H](C)O)C(=O)N[C@@H](Cc1ccc(O)cc1)C(=O)N[C@H](C(=O)N[C@@H](CC(N)=O)C(=O)N[C@@H](Cc1ccc(O)cc1)C(=O)N1CCC[C@H]1C(=O)N[C@H](C(=O)N[C@@H](Cc1ccccc1)C(=O)N[C@@H](CO)C(=O)N[C@@H](CCCNC(=N)N)C(=O)N[C@@H](CCCNC(=N)N)C(=O)N1CCC[C@H]1C(=O)N[C@@H](CCCCN)C(=O)N[C@H](C(=O)N[C@@H](CCCNC(=N)N)C(=O)N[C@H](C(=O)O)C(C)C)[C@@H](C)O)[C@@H](C)O)C(C)C [DNAM-1] (Biotin-TREDIYVNYPTFSRRPKTRV-OH; C-terminus assumed)
DLG1 (PDZ Domain 1, 2)
  Classification: 1 (A450 nm 0-1)

## ELLQFCRTPNPALKNGQYWV (Biotin-ELLQFCRTPNPALKNGQYWV)
[1]
  Classification: 1 (A450 nm 0-1)

## PPATPSPRLALPAHHNATRL (Biotin-PPATPSPRLALPAHHNATRL) [Na+/Pi cotransporter 2]
[2]
  Classification: 4 (A450 nm 3-4)

## CC[C@H](C)[C@H](NC(=O)[C@H](CO)NC(=O)[C@@H](NC(=O)[C@H](Cc1ccccc1)NC(=O)[C@H](CO)NC(=O)CCCC[C@@H]1SC[C@@H]2NC(=O)N[C@@H]21)[C@@H](C)O)C(=O)N[C@@H](CC(C)C)C(=O)N[C@H](C(=O)N[C@@H](CS)C(=O)N[C@@H](Cc1c[nH]cn1)C(=O)N[C@@H](CCC(N)=O)C(=O)N[C@@H](CCCNC(=N)N)C(=O)N[C@@H](CCCNC(=N)N)C(=O)N[C@H](C(=O)N[C@@H](CCC(N)=O)C(=O)N[C@@H](CCCNC(=N)N)C(=O)N[C@@H](CCCCN)C(=O)N[C@@H](CCC(=O)O)C(=O)N[C@H](C(=O)N[C@H](C(=O)N[C@@H](C)C(=O)O)C(C)C)[C@@H](C)O)[C@@H](C)O)[C@@H](C)O [GluR5-2 (rat)]
[1]
  Classification: 1 (A450 nm 0-1)

## CC(C)C[C@H](NC(=O)[C@H](CC(=O)O)NC(=O)[C@H](CO)NC(=O)[C@H](CCC(=O)O)NC(=O)CNC(=O)[C@H](Cc1ccc(O)cc1)NC(=O)[C@H](CC(C)C)NC(=O)[C@H](C)NC(=O)[C@H](CO)NC(=O)[C@H](CO)NC(=O)[C@H](Cc1ccccc1)NC(=O)[C@H](C)NC(=O)[C@H](C)NC(=O)[C@H](Cc1ccc(O)cc1)NC(=O)[C@H](CC(=O)O)NC(=O)[C@H](CC(C)C)NC(=O)[C@H](C)NC(=O)CNC(=O)[C@@H]1CCCN1C(=O)[C@@H](NC(=O)CCCC[C@@H]1SC[C@@H]2NC(=O)N[C@@H]21)C(C)C)C(=O)O [a-actinin 2] (Biotin-VPGALDYAAFSSALYGESDL-OH; C-terminus assumed)
[2]
  Classification: 1 (A450 nm 0-1)

## CC[C@H](C)[C@H](NC(=O)[C@H](CCC(N)=O)NC(=O)CCCC[C@@H]1SC[C@@H]2NC(=O)N[C@@H]21)C(=O)N[C@@H](CO)C(=O)N1CCC[C@H]1C(=O)NCC(=O)NCC(=O)N[C@@H](CC(C)C)C(=O)N[C@@H](CCC(=O)O)C(=O)N1CCC[C@H]1C(=O)N1CCC[C@H]1C(=O)N[C@@H](CO)C(=O)N[C@@H](CCC(=O)O)C(=O)N[C@@H](CCCCN)C(=O)N[C@@H](Cc1c[nH]cn1)C(=O)N[C@@H](Cc1ccccc1)C(=O)N[C@@H](CCCNC(=N)N)C(=O)N[C@@H](CCC(=O)O)C(=O)N[C@H](C(=O)N[C@@H](CCC(=O)O)C(=O)N[C@H](C(=O)O)C(C)C)[C@@H](C)O [Tax]
DLG1(1-2); Kd, DLG1(1-2) plated at 0.1 ug/ml
  Kd: 0.13 µM and 0.2 µM
TIP-1 (GST-TIP-1 fusion); Kd, TIP-1 plated at 0.1 ug/ml
  Kd: 0.005 µM
TIP-1 (GST-TIP-1 fusion); Tax:TIP-1 versus CD95:TIP-1
  binding to TIP-1 relative to CD95 (comparison of dissociation constants): > 3000 fold
TIP-1 (GST-TIP-1 fusion); TIP-1 plated at 0.1 ug/ml
  OD (maximum absorbance): 3.3 and 2.1
TIP-1 (GST-TIP-1 fusion); equivalent peptide concentrations, equivalent amount of GST-TIP-1
  affinity for GST-TIP-1 relative to CD95 (FIG. 2A): much higher affinity than does CD95
DLG1 (PDZ Domain 1, 2)
  Classification: 5 (A450 nm of 4 more than 2× repeated)
